This is an account of results in the supplement of paper PMC10307832.

One assay has as its system LK-2. Description: relative viability (nuclei count vs DMSO), 5 days (fraction); higher = more cells survive. The conditions noted are these: first compound 8 µM. Summed up: (§1)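 Relative viability is defined as nuclei in treated wells over nuclei in vehicle wells. Duplicate plates were run and medians reported. Lung cancer cell lines in 1536-well plates were dosed by pin tool one day after seeding, with one drug or with a fixed anchor-drug dose plus five library-drug doses (not always all listed) in √10 steps, and nuclei were counted after 5 days.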
For the compound `CCCCCCCCCCCC1=C(O)C(=O)C=C(O)C1=O` [Embelin] + N=C(N)NC(=N)NCCc1ccccc1 [Phenformin] (partner 250 µM), the relative viability is 0.26.
Still for that read-out and setting: for `CCCCCCCCCCCC1=C(O)C(=O)C=C(O)C1=O` [Embelin] + O=C(c1cc(Cc2n[nH]c(=O)c3ccccc23)ccc1F)N1CCN(C(=O)C2CC2)CC1 [Olaparib] (partner 8 µM) the value was 0.69; for `CCCCCCCCCCCC1=C(O)C(=O)C=C(O)C1=O` [Embelin] + CC(=O)Nc1cccc(-n2c(=O)n(C3CC3)c(=O)c3c(Nc4ccc(I)cc4F)n(C)c(=O)c(C)c32)c1 [Trametinib] (partner 0.02 µM), 0.954.
Compound `CCCCCCCCCCCC1=C(O)C(=O)C=C(O)C1=O` [Embelin] + Nc1ncn([C@H]2C[C@H](O)[C@@H](CO)O2)c(=O)n1 [Decitabine] (partner 2 µM) showed a relative viability of 0.332.
On the same count and under the same terms, to `CCCCCCCCCCCC1=C(O)C(=O)C=C(O)C1=O` [Embelin] + NC(=O)Nc1cc(-c2cccc(F)c2)sc1C(=O)N[C@H]1CCCNC1 [AZD7762] (partner 0.2 µM) belongs 0.351.

For the next assay, the system named is LU99A. Described as above. The note with it: first compound 0.08 µM. An outline of the steps:
as §1
The compound `CCCCCCCCCCCC1=C(O)C(=O)C=C(O)C1=O` [Embelin] + N=C(N)NC(=N)NCCc1ccccc1 [Phenformin] (partner 250 µM) had a relative viability of 0.856.
Same read-out and setting: for `CCCCCCCCCCCC1=C(O)C(=O)C=C(O)C1=O` [Embelin] + O=C(c1cc(Cc2n[nH]c(=O)c3ccccc23)ccc1F)N1CCN(C(=O)C2CC2)CC1 [Olaparib] (partner 8 µM) the value was 0.293.
Still for that read-out and setting: for `CCCCCCCCCCCC1=C(O)C(=O)C=C(O)C1=O` [Embelin] + CC(=O)Nc1cccc(-n2c(=O)n(C3CC3)c(=O)c3c(Nc4ccc(I)cc4F)n(C)c(=O)c(C)c32)c1 [Trametinib] (partner 0.02 µM) the value was 0.631; for `CCCCCCCCCCCC1=C(O)C(=O)C=C(O)C1=O` [Embelin] + Nc1ncn([C@H]2C[C@H](O)[C@@H](CO)O2)c(=O)n1 [Decitabine] (partner 2 µM), 1.01.
The compound `CCCCCCCCCCCC1=C(O)C(=O)C=C(O)C1=O` [Embelin] + NC(=O)Nc1cc(-c2cccc(F)c2)sc1C(=O)N[C@H]1CCCNC1 [AZD7762] (partner 0.2 µM) came in with a relative viability of 0.335.

The same assay, now with this note: first compound 0.8 µM.
As for `CCCCCCCCCCCC1=C(O)C(=O)C=C(O)C1=O` [Embelin] + N=C(N)NC(=N)NCCc1ccccc1 [Phenformin] (partner 250 µM), the relative viability stood at 0.951.
Still for that read-out and setting: to `CCCCCCCCCCCC1=C(O)C(=O)C=C(O)C1=O` [Embelin] + O=C(c1cc(Cc2n[nH]c(=O)c3ccccc23)ccc1F)N1CCN(C(=O)C2CC2)CC1 [Olaparib] (partner 8 µM) belongs 0.218; to `CCCCCCCCCCCC1=C(O)C(=O)C=C(O)C1=O` [Embelin] + CC(=O)Nc1cccc(-n2c(=O)n(C3CC3)c(=O)c3c(Nc4ccc(I)cc4F)n(C)c(=O)c(C)c32)c1 [Trametinib] (partner 0.02 µM), 0.596; to `CCCCCCCCCCCC1=C(O)C(=O)C=C(O)C1=O` [Embelin] + Nc1ncn([C@H]2C[C@H](O)[C@@H](CO)O2)c(=O)n1 [Decitabine] (partner 2 µM), 1.08.
Same read-out and setting: to `CCCCCCCCCCCC1=C(O)C(=O)C=C(O)C1=O` [Embelin] + NC(=O)Nc1cc(-c2cccc(F)c2)sc1C(=O)N[C@H]1CCCNC1 [AZD7762] (partner 0.2 µM) belongs 0.4.

The same assay, now with this note: first compound 2.53 µM.
Compound `CCCCCCCCCCCC1=C(O)C(=O)C=C(O)C1=O` [Embelin] + N=C(N)NC(=N)NCCc1ccccc1 [Phenformin] (partner 250 µM) gave a relative viability of 0.942.
The same measure, in the same setting: for `CCCCCCCCCCCC1=C(O)C(=O)C=C(O)C1=O` [Embelin] + O=C(c1cc(Cc2n[nH]c(=O)c3ccccc23)ccc1F)N1CCN(C(=O)C2CC2)CC1 [Olaparib] (partner 8 µM) the value was 0.281; for `CCCCCCCCCCCC1=C(O)C(=O)C=C(O)C1=O` [Embelin] + CC(=O)Nc1cccc(-n2c(=O)n(C3CC3)c(=O)c3c(Nc4ccc(I)cc4F)n(C)c(=O)c(C)c32)c1 [Trametinib] (partner 0.02 µM), 0.561; for `CCCCCCCCCCCC1=C(O)C(=O)C=C(O)C1=O` [Embelin] + Nc1ncn([C@H]2C[C@H](O)[C@@H](CO)O2)c(=O)n1 [Decitabine] (partner 2 µM), 0.942.
Still for that read-out and setting: to `CCCCCCCCCCCC1=C(O)C(=O)C=C(O)C1=O` [Embelin] + NC(=O)Nc1cc(-c2cccc(F)c2)sc1C(=O)N[C@H]1CCCNC1 [AZD7762] (partner 0.2 µM) belongs 0.372.

Still in this assay, the particulars now being: first compound 8 µM.
In turn, `CCCCCCCCCCCC1=C(O)C(=O)C=C(O)C1=O` [Embelin] + N=C(N)NC(=N)NCCc1ccccc1 [Phenformin] (partner 250 µM) gave a relative viability of 0.757.
With `CCCCCCCCCCCC1=C(O)C(=O)C=C(O)C1=O` [Embelin] + O=C(c1cc(Cc2n[nH]c(=O)c3ccccc23)ccc1F)N1CCN(C(=O)C2CC2)CC1 [Olaparib] (partner 8 µM), the relative viability is 0.241.
The same measure, in the same setting: for `CCCCCCCCCCCC1=C(O)C(=O)C=C(O)C1=O` [Embelin] + CC(=O)Nc1cccc(-n2c(=O)n(C3CC3)c(=O)c3c(Nc4ccc(I)cc4F)n(C)c(=O)c(C)c32)c1 [Trametinib] (partner 0.02 µM) the value was 0.526.
`CCCCCCCCCCCC1=C(O)C(=O)C=C(O)C1=O` [Embelin] + Nc1ncn([C@H]2C[C@H](O)[C@@H](CO)O2)c(=O)n1 [Decitabine] (partner 2 µM) displayed a relative viability of 0.91.
On the same count and under the same terms, for `CCCCCCCCCCCC1=C(O)C(=O)C=C(O)C1=O` [Embelin] + NC(=O)Nc1cc(-c2cccc(F)c2)sc1C(=O)N[C@H]1CCCNC1 [AZD7762] (partner 0.2 µM) the value was 0.233.

The test system of a further assay is LXF-289. Described as above. The note with it: first compound 0.08 µM. Summed up:
as §1
As to `CCCCCCCCCCCC1=C(O)C(=O)C=C(O)C1=O` [Embelin] + N=C(N)NC(=N)NCCc1ccccc1 [Phenformin] (partner 250 µM), the relative viability was determined as 0.509.
Same read-out and setting: for `CCCCCCCCCCCC1=C(O)C(=O)C=C(O)C1=O` [Embelin] + O=C(c1cc(Cc2n[nH]c(=O)c3ccccc23)ccc1F)N1CCN(C(=O)C2CC2)CC1 [Olaparib] (partner 8 µM) the value was 1.06; for `CCCCCCCCCCCC1=C(O)C(=O)C=C(O)C1=O` [Embelin] + CC(=O)Nc1cccc(-n2c(=O)n(C3CC3)c(=O)c3c(Nc4ccc(I)cc4F)n(C)c(=O)c(C)c32)c1 [Trametinib] (partner 0.02 µM), 0.715; for `CCCCCCCCCCCC1=C(O)C(=O)C=C(O)C1=O` [Embelin] + Nc1ncn([C@H]2C[C@H](O)[C@@H](CO)O2)c(=O)n1 [Decitabine] (partner 2 µM), 0.396.
Same read-out and setting: for `CCCCCCCCCCCC1=C(O)C(=O)C=C(O)C1=O` [Embelin] + NC(=O)Nc1cc(-c2cccc(F)c2)sc1C(=O)N[C@H]1CCCNC1 [AZD7762] (partner 0.2 µM) the value was 1.17.
